SMILES strings stand for the structures.

The target in test [1] is T1, Bacillus subtilis subtilisin E (subtilisin I168, aprA gene product), wild type, SEQ ID NO: 1 (Bacillus subtilis, UniProt P04189).
T1 construct: each contain 275 residues; made in house; host or cells: Bacillus subtilis DB428 (vector pKWC), secreted into the medium
Put plainly: Transesterification of methyl ester to ethyl ester in organic solvents. The class given is biochemical. The note with it: 1M ethanol, 32° C. The procedure:
(§1) The activity of the D60N+Q103R+N218S (3M) subtilisin E triple variant was compared to that of the wild-type enzyme for the transesterification of N-acetyl-L-phenylalanine methyl ester to the ethyl ester in three organic solvents. The reactions were carried out in 2 mL volumes of the indicated solvent, containing 1 mg/mL of enzyme, 100 mM N-acetyl-L-phenylalanine methyl ester, 1M ethanol. The samples were incubated, with shaking, at 32° C., and the formation of the ethyl ester product was measured by capillary gas chromatography. Values of the kinetic constants kcat /KM are given in Table VII for the wild-type and 3M variant enzymes. In all three solvents, anhydrous hexane, hexane containing 0.1% water, and acetonitrile containing 0.1% water, the D60N+Q103R+N218S (3M) triple variant was considerably more efficient than the wild-type enzyme.

Test [2] addresses T2, Bacillus subtilis subtilisin E variant 3M (D60N + Q103R + N218S) (Bacillus subtilis, UniProt P04189, A256V/D166N/N324S/Q209R).
T2 construct: each contain 275 residues; made in house; host or cells: Bacillus subtilis DB428 (vector pKWC), secreted into the medium
T2 sequence (P04189 107-381 D166N/Q209R/A256V/N324S): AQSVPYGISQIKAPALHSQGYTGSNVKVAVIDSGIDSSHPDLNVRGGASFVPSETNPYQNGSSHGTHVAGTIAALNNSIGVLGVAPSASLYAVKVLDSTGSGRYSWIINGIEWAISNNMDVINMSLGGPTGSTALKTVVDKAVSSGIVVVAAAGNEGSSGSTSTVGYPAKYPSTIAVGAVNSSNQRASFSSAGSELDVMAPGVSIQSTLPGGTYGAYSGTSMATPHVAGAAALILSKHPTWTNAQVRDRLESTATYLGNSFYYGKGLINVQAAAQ
The description is as above. The class given is biochemical. Particulars: 1M ethanol, 32° C. As to the method:
as §1

T1 sequence (P04189 107-381): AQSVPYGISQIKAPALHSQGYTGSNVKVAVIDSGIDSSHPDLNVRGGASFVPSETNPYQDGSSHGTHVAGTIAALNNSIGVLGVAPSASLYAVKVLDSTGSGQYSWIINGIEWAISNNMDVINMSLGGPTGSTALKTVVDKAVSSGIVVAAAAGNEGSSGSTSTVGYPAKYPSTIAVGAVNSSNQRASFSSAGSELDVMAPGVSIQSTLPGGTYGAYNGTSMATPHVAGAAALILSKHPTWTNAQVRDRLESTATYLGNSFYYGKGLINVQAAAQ

Take `COC(=O)[C@H](Cc1ccccc1)NC(C)=O` [N-acetyl-L-phenylalanine methyl ester]: the “kcat /KM” value came out at 0.3 Min^-1 mg^-1 × 10^-3 in test [1] (Ch3 CN (0.1% water)); 5 Min^-1 mg^-1 × 10^-3 in test [1] (hexane (0.1% water)); 0.4 Min^-1 mg^-1 × 10^-3 in test [1] (hexane (anhydrous)); 3.1 Min^-1 mg^-1 × 10^-3 in test [2] (Ch3 CN (0.1% water)); 220 Min^-1 mg^-1 × 10^-3 in test [2] (hexane (0.1% water)); 17 Min^-1 mg^-1 × 10^-3 in test [2] (hexane (anhydrous)).

Values taken from patent US5316935A, “Subtilisin variants suitable for hydrolysis and synthesis in organic media” (California Institute of Technology, priority 1992, dated 1994).
